{"source": "patent US20180207111A1", "about": "“IMMUNOTHERAPY FOR CASR-EXPRESSING CANCER (E.G. NEUROBLASTOMA)” (HOSPITAL SANT JOAN DE DEU, priority 2015, published 2018)", "key": {"[1]": {"system": "LA-N-1 cells", "test": "Morphological assessment of neuroblastoma cells exposed to Cinacalcet", "type": "cell-based, Homo sapiens", "conditions": "1 μM Cinacalcet vs DMSO; day 3", "procedure": "FIG. 1 is a micrograph showing the morphological assessment of LA-N-1 cells exposed to 1 μM Cinacalcet (C) or DMSO (vehicle (V)) for 3 days (3d) and 14 days (14d).\n(§1) Three neuroblastoma cell lines LA-N-1, SK-N-LP and SH-SY5Y were used for this purpose. […] No expression of the CaSR is detectable in SH-SY5Y either. Thus, SK-N-LP and SH-SY5Y were stably transfected with pCMV-CaSR-GFP or pCMV-GFP. All cell lines were grown in the presence of 1 μM Cinacalcet (Selleck Chemicals, S1260) or DMSO for 21 days in P100 plates. Morphology was assessed daily. Total RNA was isolated at days 1, 3, 5, 7, 10, 14 and 21. Several markers were analyzed by RT-qPCR using SYBRgreen and specific primers or Taqman technology and gene-specific Assays-on-Demand (Applied Biosystems) (Table 1).\n(§2) These features reached maximal expression between days 7 and 14 (FIG. 1). […] Neuroblastoma cytodifferentiation is an indication of this tumor becoming more benign, less proliferative. […] Moreover, upregulation of these differentiation-associated genes and CTAs both in vitro and in vivo (see Examples 2-4) validates the proposed in vitro model (doses used, time of exposure, etc) as a good model to evaluate neuroblastoma response to treatment with Cinacalcet."}, "[2]": {"system": "LA-N-1", "test": "RT-qPCR mRNA expression in LA-N-1 neuroblastoma cells grown with Cinacalcet", "type": "cell-based, Homo sapiens", "conditions": "1 μM Cinacalcet vs DMSO, up to 21 days", "procedure": "as §1, §2"}, "[3]": {"system": "SK-N-LP CaSR/GFP", "test": "RT-qPCR mRNA expression in SK-N-LP CaSR/GFP neuroblastoma cells grown with Cinacalcet", "type": "cell-based, Homo sapiens", "conditions": "1 μM Cinacalcet vs DMSO, up to 21 days", "procedure": "as §1, §2"}, "[4]": {"system": "LA-N-1 cells subcutaneous xenograft", "test": "In vivo neuroblastoma model: tumor growth / event-free survival", "set-up": "species or system mice", "conditions": "10 mg/kg/day oral gavage 6 days per week vs vehicle; log-rank P=0.034; FIG. 2A", "procedure": "An in vivo model of neuroblastoma was generated in four to six-week-old female athymic Nude-Foxn1 nu/nu mice (Charles Rivers), wherein LA-N-1 cells (10^7) were subcutaneously inoculated. Tumors were allowed to grow until dimensions reached 7×7 mm. Then mice were randomized to receive either vehicle (described below) or Cinacalcet (10 mg/kg/day) by oral gavage 6 days per week until tumor volume reached 2 cm^3. Cinacalcet was prepared with Mimpara® tablets (Amgen). Following homogenization of the Mimpara® tablets in a mortar, the resulting powder was reconstituted with 0.5% Tween 20 (20%, v/v) and carboxymethylcellulose (0.25%, w/v) to a final concentration of […]. Each dose contained 5 μL of this mixture per gram of mouse weight. Dimensions of tumors were measured thrice a week using a digital caliper. Tumor volume was calculated as L×W^2/2 in which “L” indicates length in mm and “W” indicates width in mm. At the end of the experiment (each mouse was sacrificed when the corresponding xenograft reached the final pre-determined volume 2 cm^3), tumors were excised and half of each specimen was frozen in liquid nitrogen for molecular analyses and the other was fixed in 10% formalin. For event-free survival (EFS) analysis, an event was defined as tumor size that exceeded 2 cm^3. The log-rank statistic was used to compare the EFS probabilities between groups. […]"}, "[5]": {"system": "normal surrounding tissues", "test": "Genome-wide expression analysis of murine genes in xenograft RNAs, Affymetrix Mouse Gene Array 2.1 ST", "type": "in vivo", "procedure": "Genome-wide expression analyses were performed using Affymetrix Human and Mouse Gene Array 2.1 ST (Affymetrix, reference number 902136 for human gene array and 902120 for mouse gene array) as per manufacturer's protocol. Procedures to analyze results included: Quality control of the arrays (following this step, xenograft C6 was removed from further analyses); filtering and normalization; selection of differentially expressed genes; single comparison (treated versus control samples); list of differentially expressed genes ranked by significance; Volcano plots showing the most differentially expressed genes; heatmaps of the clustered expression profiles; and analysis of biological significance through enrichment analysis against the Gene Ontologies, KEGG (Kyoto Encyclopedia of Genes and Genomes) and Ingenuity pathways.\nIn order to evaluate whether upregulation of CTAs was a tumor-specific effect or it was induced in normal surrounding tissues as well, a genome-wide expression analysis by means of microarrays was conducted using a chip to detect murine genes differentially expressed in the same RNAs analyzed in the human array."}, "[6]": {"system": "LA-N-1 xenografts", "test": "RT-qPCR mRNA expression in xenografts", "type": "in vivo, human", "procedure": "Total RNA was isolated from 8 xenografts exposed to Cinacalcet (C) and 8 from the control group (V). These were the last 8 tumors excised in each group, so that analyzed xenografts were those exposed to the longest period of treatment (V5-V12 and C4-C11). Two different mRNA expression analyses were conducted: Genome-wide expression analysis by microarrays (Example 3) and by RT-qPCR (Example 4).\nValidation of microarrays data was conducted by means of RT-qPCR. This technique was performed using SYBRgreen and specific primers or Taqman technology and gene-specific Assays-on-Demand (Applied Biosystems) (Table 1). This technique was also used to analyze the expression of other CTAs (members of the MAGE family and CTCFL), genes associated with differentiation and calcium-signaling pathways in further detail. Upregulation of CTCFL (FIG. 5A), MAGE A2, MAGE A3 and SSX4/48 (FIG. 5B), NTRK3 (FIG. 5C), ADCY8, PRKCA and RYR2 (FIG. 5D) was detected mainly in the two specimens exposed for the longest time to Cinacalcet (C10-C11)."}, "[7]": {"conditions": "Mus musculus genes in xenograft RNAs, Cinacalcet vs vehicle, adjusted P 0.80678117"}, "[8]": {"conditions": "xenografts, RT-qPCR, mainly in C10-C11 (longest exposure), FIG. 5B"}, "[9]": {"conditions": "xenografts, RT-qPCR, mainly in C10-C11 (longest exposure), FIG. 5D"}}, "data": [{"compound": "C[C@@H](NCCCc1cccc(C(F)(F)F)c1)c1cccc2ccccc12", "note": "[Cinacalcet]", "values": [{"measurement": "Morphological features of neuronal differentiation", "setting": "[1]", "value": "extensive neurite outgrowth"}, {"measurement": "CTCFL mRNA fold increase", "setting": "[2]", "value": 1.2, "unit": "fold"}, {"measurement": "MAGEA2 mRNA fold increase", "setting": "[2]", "value": 2.9, "unit": "fold"}, {"measurement": "MAGEA3 mRNA fold increase", "setting": "[2]", "value": 1.4, "unit": "fold"}, {"measurement": "NFL mRNA fold increase", "setting": "[2]", "value": "ns"}, {"measurement": "NTRK1 mRNA fold increase", "setting": "[2]", "value": 3.2, "unit": "fold"}, {"measurement": "NTRK3 mRNA fold increase", "setting": "[2]", "value": 2.4, "unit": "fold"}, {"measurement": "S100-β mRNA fold increase", "setting": "[2]", "value": 6.9, "unit": "fold"}, {"measurement": "SSX4/4B mRNA fold increase", "setting": "[2]", "value": 3.8, "unit": "fold"}, {"measurement": "TUBB3 mRNA fold increase", "setting": "[2]", "value": "ns"}, {"measurement": "GAGE-P1 mRNA fold increase", "setting": "[2]; primer pair GAGE P1", "value": 2.7, "unit": "fold"}, {"measurement": "GAGE-P2 mRNA fold increase", "setting": "[2]; primer pair GAGE P2", "value": 7.6, "unit": "fold"}, {"measurement": "GAGE-P3 mRNA fold increase", "setting": "[2]; primer pair GAGE P3", "value": 5.1, "unit": "fold"}, {"measurement": "CTCFL mRNA fold increase", "setting": "[3]", "value": "no expression"}, {"measurement": "MAGEA2 mRNA fold increase", "setting": "[3]", "value": 36.6, "unit": "fold"}, {"measurement": "MAGEA3 mRNA fold increase", "setting": "[3]", "value": 155.4, "unit": "fold"}, {"measurement": "NFL mRNA fold increase", "setting": "[3]", "value": 7.2, "unit": "fold"}, {"measurement": "NTRK1 mRNA fold increase", "setting": "[3]", "value": 3.6, "unit": "fold"}, {"measurement": "NTRK3 mRNA fold increase", "setting": "[3]", "value": 2.6, "unit": "fold"}, {"measurement": "S100-β mRNA fold increase", "setting": "[3]", "value": 72.3, "unit": "fold"}, {"measurement": "SSX4/4B mRNA fold increase", "setting": "[3]", "value": 69, "unit": "fold"}, {"measurement": "TUBB3 mRNA fold increase", "setting": "[3]", "value": 2.8, "unit": "fold"}, {"measurement": "GAGE-P1 mRNA fold increase", "setting": "[3]; primer pair GAGE P1", "value": 4.1, "unit": "fold"}, {"measurement": "GAGE-P2 mRNA fold increase", "setting": "[3]; primer pair GAGE P2", "value": 5.7, "unit": "fold"}, {"measurement": "GAGE-P3 mRNA fold increase", "setting": "[3]; primer pair GAGE P3", "value": 6.3, "unit": "fold"}, {"measurement": "Tumor growth (event-free survival, event = tumor size > 2 cm^3)", "setting": "[4]", "value": "significant tumor growth inhibition"}, {"measurement": "Log fold change, murine probe 17395227 (Gm14399)", "setting": "[5]; Mus musculus genes in xenograft RNAs, Cinacalcet vs vehicle, adjusted P 0.60678117", "value": 1.067}, {"measurement": "Log fold change, murine probe 17262250 (Tgtp2//Tgtp1)", "setting": "[5]; Mus musculus genes in xenograft RNAs, Cinacalcet vs vehicle, adjusted P 0.80676117", "value": 1.108}, {"measurement": "Log fold change, murine probe 17302054 (Snora31)", "setting": "[5]; [7]", "value": 1.105}, {"measurement": "Log fold change, murine probe 17352957 (Dsc1)", "setting": "[5]; [7]", "value": 1.033}, {"measurement": "Log fold change, murine probe 17380529 (Gm14419//Gm14391//Gm6710)", "setting": "[5]; [7]", "value": 1.033}, {"measurement": "Log fold change, murine probe 17386477 (Gm11084)", "setting": "[5]; [7]", "value": 1.567}, {"measurement": "Log fold change, murine probe 17458439 (Gpnmb)", "setting": "[5]; [7]", "value": 1.221}, {"measurement": "Log fold change, murine probe 17483098 (Gdpd3)", "setting": "[5]; [7]", "value": 1.309}, {"measurement": "Log fold change, murine probe 17503825 (Mmp2)", "setting": "[5]; [7]", "value": 1.046}, {"measurement": "Log fold change, murine probe 17546762 (LOC101055644//Mid1//MID1)", "setting": "[5]; [7]", "value": 1.088}, {"measurement": "Log fold change, murine probe 17546774 (Erdr1//Dock9)", "setting": "[5]; [7]", "value": 1.341}, {"measurement": "Upregulation of CTAs in normal surrounding (murine) tissues", "setting": "[5]; murine microarray, also when C9-C11 analyzed, no gene significant (adjusted P-value >0.05)", "value": "CTAs were not amongst the over-expressed genes"}, {"measurement": "Increase in relative mRNA expression of GAGE mRNA", "setting": "[6]; xenograft specimen C11, long-term treatment, data not shown", "value": "up to 100 fold"}, {"measurement": "Relative mRNA expression of CTCFL", "setting": "[6]; xenografts, RT-qPCR, mainly in C10-C11 (longest exposure), FIG. 5A", "value": "Upregulation"}, {"measurement": "Relative mRNA expression of MAGE A2", "setting": "[6]; [8]", "value": "Upregulation"}, {"measurement": "Relative mRNA expression of MAGE A3", "setting": "[6]; [8]", "value": "Upregulation"}, {"measurement": "Relative mRNA expression of SSX4/48", "setting": "[6]; [8]", "value": "Upregulation"}, {"measurement": "Relative mRNA expression of NTRK3", "setting": "[6]; xenografts, RT-qPCR, mainly in C10-C11 (longest exposure), FIG. 5C", "value": "Upregulation"}, {"measurement": "Relative mRNA expression of ADCY8", "setting": "[6]; [9]", "value": "Upregulation"}, {"measurement": "Relative mRNA expression of PRKCA", "setting": "[6]; [9]", "value": "Upregulation"}, {"measurement": "Relative mRNA expression of RYR2", "setting": "[6]; [9]", "value": "Upregulation"}]}]}
